From publication PMC10507085, “Pharmacological inhibition of TBK1/IKKε blunts immunopathology in a murine model of SARS-CoV-2 infection” (Nature Communications, 2023)

Experiments:
Assay in all cases: biochemical
Design in all cases: KINOMEscan competition binding, DNA-tagged kinase against immobilised ligand, qPCR read-out
Conditions in all cases: read-out: Percent Control
GRK1 = GRK1 (Homo sapiens, UniProt Q15835)
PIM3 = PIM3 (Homo sapiens, UniProt Q86V86)
NUAK2 = NUAK2 (Homo sapiens, UniProt Q9H093)
KIAA0999 = biological target: T1, KIAA0999 (Homo sapiens, UniProt Q9Y2K2)
T1 construct: gene SIK3

[1] = biological target: T2, RSK4(Kin.Dom.2-C-terminal) (Homo sapiens, UniProt Q9UK32)
T2 construct: gene RPS6KA6; Kin.Dom.2 C-terminal

EIF2AK1 = EIF2AK1 (Homo sapiens, UniProt Q9BQI3)
FGFR2 = FGFR2 (Homo sapiens, UniProt P21802)
CDKL2 = CDKL2 (Homo sapiens, UniProt Q92772)
STK36 = STK36 (Homo sapiens, UniProt Q9NRP7)
CSNK2A1 = CSNK2A1 (Homo sapiens, UniProt P68400)
STK39 = STK39 (Homo sapiens, UniProt Q9UEW8)
CDK18 = CDK18 (Homo sapiens, UniProt Q07002)
FGFR3 = FGFR3 (Homo sapiens, UniProt P22607)
NTRK1 = NTRK1 (Homo sapiens, UniProt P04629)
MARK1 = MARK1 (Homo sapiens, UniProt Q9P0L2)
TGFBR1 = TGFBR1 (Homo sapiens, UniProt P36897)
NEK9 = NEK9 (Homo sapiens, UniProt Q8TD19)
MYO3A = MYO3A (Homo sapiens, UniProt Q8NEV4)
STK17B = STK17B (Homo sapiens, UniProt O94768)
STK32B = STK32B (Homo sapiens, UniProt Q9NY57)

Chain of MARK1 (Q9P0L2 whole entry): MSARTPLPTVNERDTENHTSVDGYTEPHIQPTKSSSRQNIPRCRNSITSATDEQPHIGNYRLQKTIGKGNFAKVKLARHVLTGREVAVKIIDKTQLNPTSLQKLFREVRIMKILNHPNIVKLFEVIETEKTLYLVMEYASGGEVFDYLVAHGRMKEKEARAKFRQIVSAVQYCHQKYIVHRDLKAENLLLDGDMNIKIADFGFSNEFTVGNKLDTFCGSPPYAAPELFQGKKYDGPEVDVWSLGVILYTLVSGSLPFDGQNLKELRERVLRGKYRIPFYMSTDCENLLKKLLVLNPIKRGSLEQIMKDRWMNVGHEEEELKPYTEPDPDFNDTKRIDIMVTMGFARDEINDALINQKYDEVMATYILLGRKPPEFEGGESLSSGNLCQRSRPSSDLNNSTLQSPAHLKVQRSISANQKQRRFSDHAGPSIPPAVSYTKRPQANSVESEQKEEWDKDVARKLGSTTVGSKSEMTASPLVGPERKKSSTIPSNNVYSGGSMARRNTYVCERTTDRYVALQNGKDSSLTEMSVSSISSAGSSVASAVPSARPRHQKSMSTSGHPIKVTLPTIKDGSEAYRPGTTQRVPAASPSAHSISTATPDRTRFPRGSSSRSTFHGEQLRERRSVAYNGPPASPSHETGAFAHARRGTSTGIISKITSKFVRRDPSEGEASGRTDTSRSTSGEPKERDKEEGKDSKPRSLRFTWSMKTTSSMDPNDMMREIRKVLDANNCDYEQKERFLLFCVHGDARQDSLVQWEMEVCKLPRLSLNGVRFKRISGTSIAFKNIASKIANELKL
Chain of TGFBR1 (P36897 whole entry): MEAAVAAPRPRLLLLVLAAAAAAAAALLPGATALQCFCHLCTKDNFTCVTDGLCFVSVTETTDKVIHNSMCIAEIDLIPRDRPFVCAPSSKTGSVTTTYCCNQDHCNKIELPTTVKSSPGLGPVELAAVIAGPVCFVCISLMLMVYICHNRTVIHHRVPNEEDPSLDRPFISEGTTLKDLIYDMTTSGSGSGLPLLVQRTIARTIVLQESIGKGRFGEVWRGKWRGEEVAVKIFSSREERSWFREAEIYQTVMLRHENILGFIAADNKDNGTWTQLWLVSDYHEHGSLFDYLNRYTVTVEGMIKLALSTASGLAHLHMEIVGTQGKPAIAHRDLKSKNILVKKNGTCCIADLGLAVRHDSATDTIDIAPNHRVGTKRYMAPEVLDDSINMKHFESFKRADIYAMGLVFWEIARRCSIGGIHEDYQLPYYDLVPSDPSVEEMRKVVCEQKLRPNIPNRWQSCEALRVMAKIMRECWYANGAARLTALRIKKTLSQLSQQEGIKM
Chain of CDK18 (Q07002 whole entry): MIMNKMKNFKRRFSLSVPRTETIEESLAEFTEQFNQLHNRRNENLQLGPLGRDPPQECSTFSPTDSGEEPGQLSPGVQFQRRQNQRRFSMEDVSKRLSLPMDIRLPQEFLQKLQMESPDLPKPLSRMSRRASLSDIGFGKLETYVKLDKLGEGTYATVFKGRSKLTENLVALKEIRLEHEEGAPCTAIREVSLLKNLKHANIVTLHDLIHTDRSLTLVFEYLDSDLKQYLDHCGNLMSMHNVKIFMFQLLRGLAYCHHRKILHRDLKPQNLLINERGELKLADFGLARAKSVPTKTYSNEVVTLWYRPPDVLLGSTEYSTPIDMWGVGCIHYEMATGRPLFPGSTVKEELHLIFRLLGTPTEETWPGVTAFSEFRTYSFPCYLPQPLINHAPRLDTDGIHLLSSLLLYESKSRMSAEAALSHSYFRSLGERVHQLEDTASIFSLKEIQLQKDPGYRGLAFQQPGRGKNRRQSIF
Chain of FGFR2 (P21802 whole entry): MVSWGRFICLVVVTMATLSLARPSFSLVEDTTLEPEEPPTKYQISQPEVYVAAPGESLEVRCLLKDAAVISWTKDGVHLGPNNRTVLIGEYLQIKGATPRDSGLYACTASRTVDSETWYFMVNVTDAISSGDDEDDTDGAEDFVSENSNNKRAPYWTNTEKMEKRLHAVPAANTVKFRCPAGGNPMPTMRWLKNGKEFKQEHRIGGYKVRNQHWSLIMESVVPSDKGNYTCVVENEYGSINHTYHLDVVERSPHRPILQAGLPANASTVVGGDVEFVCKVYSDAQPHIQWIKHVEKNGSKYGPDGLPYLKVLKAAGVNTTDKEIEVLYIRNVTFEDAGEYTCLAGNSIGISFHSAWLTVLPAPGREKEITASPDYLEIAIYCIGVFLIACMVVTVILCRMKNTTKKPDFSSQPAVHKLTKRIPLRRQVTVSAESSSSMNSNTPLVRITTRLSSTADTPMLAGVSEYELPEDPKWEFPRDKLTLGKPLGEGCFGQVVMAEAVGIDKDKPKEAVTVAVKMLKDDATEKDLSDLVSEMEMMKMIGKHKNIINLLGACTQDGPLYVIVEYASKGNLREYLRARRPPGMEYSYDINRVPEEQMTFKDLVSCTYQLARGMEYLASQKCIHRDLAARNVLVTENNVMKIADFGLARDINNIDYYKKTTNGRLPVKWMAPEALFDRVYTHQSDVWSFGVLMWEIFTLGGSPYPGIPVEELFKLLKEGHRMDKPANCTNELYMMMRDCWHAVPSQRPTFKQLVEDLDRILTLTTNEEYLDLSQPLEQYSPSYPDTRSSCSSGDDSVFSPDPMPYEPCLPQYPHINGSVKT
Chain of FGFR3 (P22607 whole entry): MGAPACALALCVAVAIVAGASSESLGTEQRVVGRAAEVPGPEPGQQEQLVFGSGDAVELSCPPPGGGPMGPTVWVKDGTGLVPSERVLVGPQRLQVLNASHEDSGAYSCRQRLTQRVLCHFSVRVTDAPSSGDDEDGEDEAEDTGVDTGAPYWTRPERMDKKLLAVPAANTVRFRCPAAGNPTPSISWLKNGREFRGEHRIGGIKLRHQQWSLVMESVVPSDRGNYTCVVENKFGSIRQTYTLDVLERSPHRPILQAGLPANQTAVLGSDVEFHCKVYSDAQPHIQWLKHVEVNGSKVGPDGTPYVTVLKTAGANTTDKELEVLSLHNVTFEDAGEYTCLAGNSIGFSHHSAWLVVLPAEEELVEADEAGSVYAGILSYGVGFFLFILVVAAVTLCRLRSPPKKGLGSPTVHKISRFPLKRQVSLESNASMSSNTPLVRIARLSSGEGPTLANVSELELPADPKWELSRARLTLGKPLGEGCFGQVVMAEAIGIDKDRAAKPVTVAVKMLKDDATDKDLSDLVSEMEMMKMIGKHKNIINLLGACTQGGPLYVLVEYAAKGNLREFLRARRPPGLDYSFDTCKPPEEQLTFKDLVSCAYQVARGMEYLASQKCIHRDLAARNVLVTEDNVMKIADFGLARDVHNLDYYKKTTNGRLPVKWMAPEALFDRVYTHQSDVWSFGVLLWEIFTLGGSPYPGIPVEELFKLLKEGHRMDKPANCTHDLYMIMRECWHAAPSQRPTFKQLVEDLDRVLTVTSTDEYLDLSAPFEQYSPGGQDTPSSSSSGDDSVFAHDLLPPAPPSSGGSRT
Chain of STK17B (O94768 whole entry): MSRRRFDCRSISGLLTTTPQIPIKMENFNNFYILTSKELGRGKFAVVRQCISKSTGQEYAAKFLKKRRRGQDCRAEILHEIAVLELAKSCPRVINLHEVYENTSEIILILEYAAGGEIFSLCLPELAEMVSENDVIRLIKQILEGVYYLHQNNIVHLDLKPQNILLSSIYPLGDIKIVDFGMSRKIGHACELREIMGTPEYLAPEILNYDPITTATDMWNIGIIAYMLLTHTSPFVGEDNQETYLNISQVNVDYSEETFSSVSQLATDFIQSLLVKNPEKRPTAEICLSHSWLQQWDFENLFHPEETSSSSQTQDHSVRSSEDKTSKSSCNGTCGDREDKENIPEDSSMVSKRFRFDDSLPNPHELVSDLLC
Chain of EIF2AK1 (Q9BQI3 whole entry): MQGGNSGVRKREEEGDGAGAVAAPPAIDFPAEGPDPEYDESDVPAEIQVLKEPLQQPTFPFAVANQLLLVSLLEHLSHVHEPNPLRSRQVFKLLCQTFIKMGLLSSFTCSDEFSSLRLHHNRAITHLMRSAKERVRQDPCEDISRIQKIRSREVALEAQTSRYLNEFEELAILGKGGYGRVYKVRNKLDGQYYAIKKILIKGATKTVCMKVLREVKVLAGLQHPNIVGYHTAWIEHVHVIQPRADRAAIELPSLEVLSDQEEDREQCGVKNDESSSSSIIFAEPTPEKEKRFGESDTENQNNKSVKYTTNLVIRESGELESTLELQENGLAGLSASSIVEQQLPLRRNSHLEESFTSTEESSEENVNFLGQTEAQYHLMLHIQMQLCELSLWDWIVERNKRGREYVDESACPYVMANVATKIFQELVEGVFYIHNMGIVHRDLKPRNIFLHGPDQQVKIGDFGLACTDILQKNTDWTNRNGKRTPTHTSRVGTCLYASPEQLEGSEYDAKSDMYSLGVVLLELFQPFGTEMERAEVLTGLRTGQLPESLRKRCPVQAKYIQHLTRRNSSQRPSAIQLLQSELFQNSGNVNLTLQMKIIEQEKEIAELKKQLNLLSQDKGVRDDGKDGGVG

Oc1ccc(C2=Cc3ccc(O)cc3OC2)cc1 [compound 1, idronoxil] was tested. Which remaining binding at 10 µM (GRK1) did it give?
The remaining binding at 10 µM was 100%.

And the remaining binding at 10 µM (PIM3)?
Its remaining binding at 10 µM is 40%.

And the remaining binding at 10 µM (NUAK2)?
Its remaining binding at 10 µM is 68%.

And the remaining binding at 10 µM (KIAA0999)?
The remaining binding at 10 µM was 89%.

And the remaining binding at 10 µM [1]?
The remaining binding at 10 µM was 76%.

And the remaining binding at 10 µM (EIF2AK1)?
The remaining binding at 10 µM was 88%.

And the remaining binding at 10 µM (FGFR2)?
The remaining binding at 10 µM was 80%.

And the remaining binding at 10 µM (CDKL2)?
Its remaining binding at 10 µM is 100%.

What about the remaining binding at 10 µM (STK36) of the same compound?
Its remaining binding at 10 µM is 78%.

What about the remaining binding at 10 µM (CSNK2A1) of the same compound?
The remaining binding at 10 µM was 49%.

What about the remaining binding at 10 µM (STK39) of the same compound?
Its remaining binding at 10 µM is 71%.

What about the remaining binding at 10 µM (CDK18) of the same compound?
The remaining binding at 10 µM was 71%.

What about the remaining binding at 10 µM (FGFR3) of the same compound?
Its remaining binding at 10 µM is 80%.

And the remaining binding at 10 µM (NTRK1)?
Its remaining binding at 10 µM is 91%.

What about the remaining binding at 10 µM (MARK1) of the same compound?
Its remaining binding at 10 µM is 91%.

And the remaining binding at 10 µM (TGFBR1)?
Its remaining binding at 10 µM is 78%.

What about the remaining binding at 10 µM (NEK9) of the same compound?
The remaining binding at 10 µM was 100%.

And the remaining binding at 10 µM (MYO3A)?
The remaining binding at 10 µM was 91%.

And the remaining binding at 10 µM (STK17B)?
Its remaining binding at 10 µM is 40%.

And the remaining binding at 10 µM (STK32B)?
The remaining binding at 10 µM was 100%.
